According to publication PMC11228576 (RSC Advances, 2024):
Like-named read-outs stand apart in the source and are kept apart here.

Columns and labels:
[1] = molecular target: T1, bovine erythrocyte CA-II (Bos taurus, UniProt P00921); assay: CA-II in vitro inhibition assay; format: biochemical; details: for Percent inhibition (0.5 mM): compound at 0.5 mM; for inhibition at 500 µM: read-out: Percent inhibition (0.5 mM)
[2] = molecular target: T1, bovine erythrocyte CA-II; assay: Enzyme kinetics study of CA-II inhibition; format: biochemical
[3] = read-out: IC50 ± μM (SEM), bovine CA-II, triplicate, SEM

T1 sequence (P00921 whole entry): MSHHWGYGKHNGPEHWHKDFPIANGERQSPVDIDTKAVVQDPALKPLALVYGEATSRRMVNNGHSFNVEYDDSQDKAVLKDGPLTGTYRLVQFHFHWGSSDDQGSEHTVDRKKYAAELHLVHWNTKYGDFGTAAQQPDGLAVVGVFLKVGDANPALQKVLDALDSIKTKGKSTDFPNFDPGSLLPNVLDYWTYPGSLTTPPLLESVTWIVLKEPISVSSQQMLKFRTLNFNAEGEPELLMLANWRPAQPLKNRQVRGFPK

Row | SMILES | Percent inhibition (0.5 mM) ([1]; bovine CA-II) [%] | IC50 [1, 3] [µM] | IC50 [1] [µM] | inhibition at 500 µM [1] [%] | Ki [2] [µM] | type of inhibition ([2]; bovine CA-II, Lineweaver–Burk plot)
1 | COc1ccc(-n2c(-c3ccc(Cl)cc3)cs/c2=N/N=C/c2ccc(N3CCOCC3)cc2)cc1 [Compound 19, 4-{4-[(E)-{[(E)-4-(4-chlorophenyl)-3-(4-methoxyphenyl)thiazol-2(3H)-ylidene] hydrazone}methyl]phenyl}morpholine] | 70.35 | 48.2 ± 1.19 |  |  |  | 
2 | Cc1cccc(C)c1-n1c(-c2ccc([N+](=O)[O-])cc2)cs/c1=N/N=C/c1ccc(N2CCOCC2)cc1 [Compound 26, 4-{4-[(E)-{[(E)-3-(2,6-dimethylphenyl)-4-(4-nitrophenyl)thiazol-2(3H)ylidene] hydrazone}methyl]phenyl}morpholine] | 89.76 | 17.2 ± 0.36 |  |  |  | 
3 | Clc1ccc(-c2cs/c(=N/N=C/c3ccc(N4CCOCC4)cc3)n2CCN2CCOCC2)cc1 [Compound 17, 4-{2-[(E)-2-{[(E)-4-morpholinobenzylidene]hydrazineylidene}-4-(4-chlorophenyl)thiazol-3(2H)-yl]ethyl}morpholine] |  |  | 51.2 ± 1.26 | 71.2 |  | 
4 | Cc1ccc(Cn2c(-c3ccc(Cl)cc3)cs/c2=N/N=C/c2ccc(N3CCOCC3)cc2)cc1 [Compound 16, 4-{4-[(E)-{[(E)-4-(4-chlorophenyl)-3-(4-methylbenzyl)thiazol-2(3H)-ylidene]hydrazone}methyl]phenyl}morpholine] | 70.20 | 56.3 ± 1.4 |  |  |  | 
5 | O=[N+]([O-])c1ccc(-c2cs/c(=N/N=C/c3ccc(N4CCOCC4)cc3)n2CCN2CCOCC2)cc1 [Compound 24, 4-{2-[(E)-2-{[(E)-4-morpholinobenzylidene]hydrazineylidene}-4-(4-nitrophenyl)thiazol-3(2H)-yl]ethyl}morpholine] |  |  | 14.7 ± 0.29 | 90.2 | 9.64 ± 0.007 | competitive type of inhibition
6 | COc1ccc(-n2c(-c3ccc([N+](=O)[O-])cc3)cs/c2=N/N=C/c2ccc(N3CCOCC3)cc2)cc1 [Compound 25, 4-{4-[(E)-{[(E)-3-(4-methoxyphenyl)-4-(4-nitrophenyl)thiazol-2(3H)-ylidene]hydrazone}methyl]phenyl}morpholine] | 88.69 | 16.5 ± 0.4 |  |  |  | 
7 | C(=N\N=c1\scc(-c2ccccc2)n1Cc1ccccc1)/c1ccc(N2CCOCC2)cc1 [Compound 5, 4-{4-[(E)-{[(E)-3-benzyl-4-phenylthiazol-2(3H)-ylidene] hydrazone}methyl]phenyl} morpholine] | 86.61 | 26.5 ± 0.68 |  |  |  | 
8 | Cc1cccc(C)c1-n1c(-c2ccc(Cl)cc2)cs/c1=N/N=C/c1ccc(N2CCOCC2)cc1 [Compound 21, 4-{4-[(E)-{[(E)-4-(4-chlorophenyl)-3-(2,6-dimethylphenyl)thiazol-2(3H)-ylidene]hydrazone}methyl]phenyl}morpholine] | 81.46 | 38.6 ± 0.48 |  |  |  | 
9 | C(=N\N=c1\scc(-c2ccccc2)n1-c1cccc2ccccc12)/c1ccc(N2CCOCC2)cc1 [Compound 10, 4-{4-[(E)-{[(E)-3-(naphthalen-1-yl)-4-phenylthiazol-2(3H)-ylidene] hydrazone}methyl]phenyl} morpholine] | 80.20 | 39.7 ± 1.41 |  |  |  | 
10 | C(=N\N=c1\scc(-c2ccccc2)n1CCN1CCOCC1)/c1ccc(N2CCOCC2)cc1 [Compound 7, 4-{2-[(E)-2-{[(E)-4-morpholinobenzylidene]hydrazineylidene}-4-phenylthiazol-3(2H)-yl]ethyl}morpholine] |  |  | 37.2 ± 1.37 | 80.9 |  | 
11 | Clc1ccc(-c2cs/c(=N/N=C/c3ccc(N4CCOCC4)cc3)n2Cc2ccccc2)cc1 [Compound 14, 4-{4-[(E)-{[(E)-3-benzyl-4-(4-chlorophenyl)thiazol-2(3H)-ylidene]hydrazone}methyl]phenyl}morpholine] | 80.69 | 35.4 ± 0.64 |  |  |  | 
12 | C(=N\N=c1\scc(-c2ccccc2)n1C1CCCCC1)/c1ccc(N2CCOCC2)cc1 [Compound 3, 4-{4-[(E)-{[(E)-3-cyclohexyl-4-phenylthiazol-2(3H)-ylidene]hydrazone}methyl]phenyl} morpholine] | 86.44 | 30.2 ± 0.59 |  |  |  | 
13 | O=[N+]([O-])c1cccc(-n2c(-c3ccccc3)cs/c2=N/N=C/c2ccc(N3CCOCC3)cc2)c1 [Compound 8, 4-{4-[(E)-{[(E)-3-(3-nitrophenyl)-4-phenylthiazol-2(3H)-ylidene] hydrazone}methyl]phenyl} morpholine] | 83.11 | 27.4 ± 0.47 |  |  |  | 
14 | Brc1ccc(-c2cs/c(=N/N=C/c3ccc(N4CCOCC4)cc3)n2-c2ccccc2)cc1 [Compound 27, 4-{4-[(E)-{[(E)-4-(4-bromophenyl)-3-phenylthiazol-2(3H)-ylidene]hydrazone}methyl]phenyl}morpholine] | 84.95 | 23.8 ± 0.44 |  |  |  | 
15 | C(=N\N=c1\scc(-c2ccccc2)n1CCc1ccccc1)/c1ccc(N2CCOCC2)cc1 [Compound 6, 4-{4-[(E)-{[(E)-3-phenethyl-4-phenylthiazol-2(3H)-ylidene]hydrazone}methyl]phenyl} morpholine] | 84.29 | 34.6 ± 1.1 |  |  |  | 
16 | Clc1ccc(-c2cs/c(=N/N=C/c3ccc(N4CCOCC4)cc3)n2CCc2ccccc2)cc1 [Compound 15, 4-{4-[(E)-{[(E)-4-(4-chlorophenyl)-3-phenethylthiazol-2(3H)-ylidene]hydrazone}methyl]phenyl}morpholine] | 75.36 | 49.3 ± 1.35 |  |  |  | 
